Values after ≈ are worked out from the molar mass of the structure shown.
Tests used:
[1] = test system: Clostridioides difficile ATCC 43255; test: MIC determination using broth microdilution method, anaerobic bacteria; type: cell-based; settings: ATCC43255; Clostridioides difficile ATCC 43255; broth microdilution, anaerobic, 37° C., 48 h
Description: 0.10 g of sterile cycloserine and 3.20 mg of sterile cefoxitin (filtered by a filter membrane and sterilized) were added to every 200 mL, mixed well, and poured into a sterile petri dish for later use.
S3, culture of Clostridioides difficile strain: 1) the strain stored at −80° C. was resuscitated in an anaerobic glove box with a cycloserine-cefoxitin-fructose agar medium plate, and statically cultured at 37° C. in a constant-temperature incubator for 48 h; • 2) single colonies were picked, and statically cultured in the brain heart infusion broth medium overnight at 37° C. in the constant-temperature incubator; and • 3) the bacterial solution that was statically cultured overnight was transferred into the anaerobic glove box with the brain heart infusion broth medium at a ratio of 1:100, and cultured for 3-4 h until the OD600 was between 0.6 and 0.8; and during this process, 5 g/L of yeast extract solution was added to increase a strain concentration.
(§1) The culture process of the strain was operated in the anaerobic glove box. After the operation was completed, the strain was well sealed with an anaerobic bag or an anaerobic box, taken out and then cultured in the constant-temperature incubator.

[2] = test system: Bacteroides fragilis ATCC 25285; test: as above; type: cell-based; settings: ATCC25285; Bacteroides fragilis ATCC 25285; broth microdilution, anaerobic, 37° C., 48 h; read-out: MIC
Description: as §1

[3] = test system: Porphyromonas gingivalis ATCC 33277; test: as above; type: cell-based; settings: ATCC33277; Porphyromonas gingivalis ATCC 33277; broth microdilution, anaerobic, 37° C., 48 h; read-out: MIC
Description: S5, Culture of Porphyromonas gingivalis strain: • the strain stored at −80° C. was resuscitated in the anaerobic glove box with a Colombian blood agar plate, and statically cultured at 37° C. in the constant-temperature incubator for 5-7 days.
as §1

[4] = test system: H. pylori ATCC 26695; test: MIC determination using broth microdilution method, Helicobacter pylori; type: cell-based; settings: ATCC26695, H. pylori ATCC 26695(S), metronidazole-susceptible strain, read-out: MIC
Description: (§2) • 1) A frozen solution stored at −80° C. was taken out, and thawed at room temperature; 100 μL of bacterial solution was taken with a pipette, coated onto a Columbia blood agar plate (finished-product medium), put invertedly in a […] culture box, placed in a micro-aerobic gas production bag to achieve a micro-aerobic environment, and cultured at 37° C. for 2-3 days. • 2) A sterile inoculation ring was used to pick Helicobacter pylori single colonies (transparent water droplets) grown on the Colombian blood agar medium and inoculated in the above liquid medium; and cultured at 37° C. in a micro-aerobic environment for 3 days. • 3) A required concentration (absorbance) for the experiment was reached after culture, and the bacterial solution was taken for subsequent experiments.
(§3) The drug concentration at which bacteria ceased to grow or grew at the most significant reduction level was referred to as the MIC value.

[5] = test system: H. pylori ATCC 43504; test: as above; type: cell-based; settings: Helicobacter pylori, ATCC43504; H. pylori ATCC 43504(R), metronidazole-resistant strain; read-out: MIC
Description: as §2, §3

[6] = test system: H. pylori NCTC 11637; test: as above; type: cell-based; settings: Helicobacter pylori, NCTC11637; H. pylori NCTC 11637(R), metronidazole-resistant strain; read-out: MIC
Description: as §2, §3

[7] = test system: H. pylori Sydney strain SS1; test: as above; type: cell-based; settings: H. pylori Sydney strain SS1, read-out: MIC
Description: as §2, §3

[8] = test system: Clostridioides difficile infection (spores, 027 Type); test: Clostridioides difficile infection (CDI) mouse model; type: in vivo, C57BL/6 mice; settings: for number of surviving mice: 10 animals per group
Text: • 1) Experimental animals: C57BL/6, 4-6 weeks old, female.
In order to evaluate the efficacy of the compounds of the present application on Clostridioides difficile infection, an animal model of Clostridioides difficile infection was established, as shown in FIG. 1. […] On Day 0, the mice were administrated with 10^5 CFU/mL of spores by gavage; and on Days 1 and 2, the mice were administrated with 10^6 CFU/mL of spores by gavage. Starting from Day 3, the mice were given 7 days of drug treatment, and all mice were euthanized at the end of the experiment, except for the death of mice during the treatment.
Two of the conjugates, SCUT1-2 and SCUT1-6, with the optional in-vitro inhibitory activities were selected. […] The therapeutic effect of the conjugate of the present application in the treatment of Clostridioides difficile infection was evaluated.

[9] = test system: H. pylori ATCC 43504; settings: H. pylori ATCC 43504(R); footnote a; cited from earlier work
[10] = test system: H. pylori ATCC 26695; settings: H. pylori ATCC 26695(S); footnote b; cited from earlier work
[11] = Day 3 (before the administration), 50 mg/kg groups

Work on Cc1ncc([N+](=O)[O-])n1CCO [Metronidazole] yielded an MIC [1] of 1 to 2 µg/mL (≈ 5.84 to 11.7 µM), an MIC [2] of 0.25 to 2 µg/mL (≈ 1.46 to 11.7 µM) and an MIC [3] of 2 µg/mL (≈ 11.7 µM). It also gave an MIC [4] of 4 µg/mL (≈ 23.4 µM), an MIC [5] of over 128 µg/mL and an MIC [6] of over 128 µg/mL. For the same compound, the MIC [7] was 8 µg/mL (≈ 46.7 µM), the “number of mice with diarrhea” value [8, 11] was 9 number of mice and the “number of surviving mice” value [8, 11] was 10 number of mice. For the same compound, the “number of mice with diarrhea” value ([8]; Day 4, 50 mg/kg) was 8 number of mice, the “number of surviving mice” value ([8]; Day 4, 50 mg/kg) was 9 number of mice and the “number of mice with diarrhea” value ([8]; Day 5, 50 mg/kg) was 5 number of mice. For the same compound, the “number of surviving mice” value ([8]; Day 5, 50 mg/kg) was 8 number of mice, the “number of mice with diarrhea” value ([8]; Day 6, 50 mg/kg) was 3 number of mice and the “number of surviving mice” value ([8]; Day 6, 50 mg/kg) was 8 number of mice. The “number of mice with diarrhea” value ([8]; Day 7, 50 mg/kg) was 3 number of mice, the “number of surviving mice” value ([8]; Day 7, 50 mg/kg) was 8 number of mice and the “number of mice with diarrhea” value ([8]; Day 8, 50 mg/kg) was 3 number of mice. For the same compound, the “number of surviving mice” value ([8]; Day 8, 50 mg/kg) was 8 number of mice, the “number of mice with diarrhea” value ([8]; Day 9, 50 mg/kg) was 3 number of mice and the “number of surviving mice” value ([8]; Day 9, 50 mg/kg) was 8 number of mice. The probability of survival ([8]; after 7 days of drug treatment, 50 mg/kg, Model group 44.44%) was 80%, the “MIC reported in related literatures” value [9] was “(64-256)^a μg/mL” and the “MIC reported in related literatures” value [10] was “(1-8)^b μg/mL”.

Source: patent US20260199482A1, “BILE ACID-METRONIDAZOLE CONJUGATE AND USE THEREOF” (SOUTH CHINA UNIVERSITY OF TECHNOLOGY, priority 2022, published 2026)
